In article PMC4421842 (Nature Communications, 2015):
In brackets after ≈: the same amount, converted by molar mass. Several values for one entry are separate records, joined by “and”; a condition that tells them apart may be missing. Equal values may be shown once. Read-outs that look alike come from different tables or passages of the source.

How the values were obtained:
MRSA clinical isolates = assay: microbe, parasite or virus in culture; type: cell-based, S. aureus; settings: Staphylococcus aureus, MRSA, read-out: MIC
Method: MRSA and P. aeruginosa isolates were from Cubist Pharmaceuticals (Lexington, MA). VRE isolates were from a previously published collection. E. coli strains were obtained either from ATCC or Professor Cari Vanderpool (UIUC). A. baumannii isolates were obtained from Dr John Quale[51].
Susceptibility testing was performed in triplicate, using the microdilution broth method as outlined by the Clinical and Laboratory Standards Institute[52]. Mueller Hinton (MH) broth was used.

[1] = tested on: WT S. aureus (ATCC 29213, WT); assay: microbe, parasite or virus in culture; type: cell-based; settings: for MIC against S. aureus 29213: ATCC 29213; for MIC: Staphylococcus aureus
[2] = Tolerability in mice (maximal tolerated dose); type: in vivo; settings: increasing doses, highest dose evaluated 50 mg kg^−1 by oral gavage
Method: (§1) The animal studies (PK, in-vivo toxicity and in-vivo efficacy) were carried out in strict accordance with the recommendations in the Guide for the Care and Use of Laboratory Animals of the National Institutes of Health. […] In these studies, 10- to 12-week-old female C57BL/6 mice purchased from Charles River were used. DNM, DNM-2 and DNM-3 were formulated as slurries at 8.3 mg ml^−1 in 25% Cremophor RH40/water (v/v). Before beginning the pharmacokinetic assessment, mice were first tested for their ability to tolerate the DNM, DNM-2 and DNM-3 at 50 mg kg^−1 (p.o.). […] At specified time points, mice were killed and blood was collected, centrifuged and the serum was frozen at −80 °C until analysis. The proteins in a 50-μl aliquot of serum were precipitated by the addition of 50 μl of acetonitrile and the sample was centrifuged to remove the proteins. Serum concentrations of DNM, DNM-2 and DNM-3 were determined by HPLC. PK parameters were determined using GraphPad Prism Version 5.00 for Windows.

[3] = tested on: FQR S. aureus (NRS3, FQR); assay: MIC, microdilution broth assay, FQR MRSA NRS3; type: cell-based; settings: for MIC: Staphylococcus aureus
physchem = settings: pH 7.4
Method: Three independent replicates of each compound were performed.

[4] = Pharmacokinetic assessment; type: in vivo, C57BL/6 mice
Method: as §1

[5] = WT GyrA and WT ParC, three independent replicates
[6] = ATCC29213, ATCC 29213, WT GyrA and WT ParC, three independent replicates, read-out: MIC against S. aureus 29213
[7] = NRS3, S84L GyrA and S80F ParC, three independent replicates
[8] = female, C57BL/6, mouse, in vivo, C57/BL6 mice, 50 mg kg-1 oral gavage, serum
[9] = NRS3, S84L GyrA and S80F ParC, three independent replicates, read-out: MIC against S. aureus NRS3

Structure (SMILES): CC1(C)S[C@@H]2[C@H](NC(=O)[C@H](N)c3ccccc3)C(=O)N2[C@H]1C(=O)O [Amp, Ampicillin, reference compound]
- MIC (MRSA clinical isolates; strain SAU.1118): > 64 µg/mL
- MIC (MRSA clinical isolates; strain SAU.3024): > 64 µg/mL
- MIC (MRSA clinical isolates; strain SAU.3025): 64 µg/mL (≈ 183 µM)
- MIC (MRSA clinical isolates; strain SAU.419): > 64 µg/mL
- MIC (MRSA clinical isolates; strain SAU.42): 2 µg/mL (≈ 5.72 µM)
- MIC (MRSA clinical isolates; strain SAU.446): > 64 µg/mL
- MIC (MRSA clinical isolates; strain SAU.447): > 64 µg/mL
- MIC (MRSA clinical isolates; strain SAU.555): > 64 µg/mL

Structure (SMILES): CCc1cc(=O)n2c3c(c4c(cc13)c(C)cc(=O)n4C)OC2 [DNM-3]
- MIC against S. aureus 29213 [1, 5]: 8 µg/mL (≈ 27 µM)
- MIC [1, 6]: 8 µg/mL (≈ 27 µM)
- tolerability [2]: well tolerated up to the highest dose evaluated
- MIC against S. aureus NRS3 [3, 7]: 0.12 µg/mL (≈ 0.405 µM)
- solubility at 1 h (physchem): 27 µM (≈ 8 µg/mL)
- AUC [4, 8]: 4000 ng·h/mL
- Tmax [4, 8]: 1.1 h
- half-life [4, 8]: 1.2 h
- Cmax ([4]; female, C57BL/6, mouse, mice, 50 mg kg^−1 oral dose, serum, read-out: Cmax (peak serum concentration)): 4.3 µM and 1260 ng/mL
- oral bioavailability / serum exposure ([4]; mice, 50 mg kg^−1 oral dose): intermediate level of bioavailability
- area under the curve ([4]; mice, 50 mg kg^−1 oral dose, serum): 4000 ng·h/mL

Structure (SMILES): CO[C@@H]1[C@@H](OC(N)=O)[C@@H](O)[C@H](Oc2ccc3c(O)c(NC(=O)c4ccc(O)c(CC=C(C)C)c4)c(=O)oc3c2C)OC1(C)C [Novo, Novobiocin, reference compound]
- MIC (MRSA clinical isolates; strain SAU.1118): 0.5 µg/mL (≈ 0.816 µM)
- MIC (MRSA clinical isolates; strain SAU.3017): 0.5 µg/mL (≈ 0.816 µM)
- MIC (MRSA clinical isolates; strain SAU.3021): 0.25 µg/mL (≈ 0.408 µM)
- MIC (MRSA clinical isolates; strain SAU.419): 0.25 µg/mL (≈ 0.408 µM)
- MIC (MRSA clinical isolates; strain SAU.42): 0.5 µg/mL (≈ 0.816 µM)
- MIC (MRSA clinical isolates; strain SAU.447): 0.25 µg/mL (≈ 0.408 µM)
- MIC (MRSA clinical isolates; strain SAU.555): 0.25 µg/mL (≈ 0.408 µM)
- MIC (MRSA clinical isolates; strain SAU.846): 0.125 µg/mL (≈ 0.204 µM)

Structure (SMILES): Cc1cc(=O)[nH]c2c(O)c3c(cc12)c(C)cc(=O)n3C [compound 1]
- MIC [1, 6]: 2 µg/mL (≈ 7.4 µM)
- MIC ([3]; NRS3, read-out: MIC against S. aureus NRS3): 4 µg/mL (≈ 14.8 µM)

Structure (SMILES): CCc1cc(=O)n(C)c2c3c4c(cc12)c(C)cc(=O)n4CO3 [compound 4]
- MIC against S. aureus 29213 [1, 5]: 8 µg/mL (≈ 27 µM)
- MIC [1, 6]: 8 µg/mL (≈ 27 µM)
- MIC against S. aureus NRS3 [3, 7]: 0.25 µg/mL (≈ 0.844 µM)
- solubility at 1 h (physchem): 53 µM (≈ 15.7 µg/mL)

Structure (SMILES): Cc1cc(=O)n(C)c2c3c4c(cc12)c(C)cc(=O)n4C(C)O3 (stereo not drawn) [compound 5]
- MIC against S. aureus 29213 [1, 5]: 4 µg/mL (≈ 13.5 µM)
- MIC [1, 6]: 4 µg/mL (≈ 13.5 µM)

Structure (SMILES): CCCc1cc(=O)n2c3c(c4c(cc13)c(C)cc(=O)n4C)OC2 [compound 6]
- MIC against S. aureus 29213 [1, 5]: 16 µg/mL (≈ 51.6 µM)
- MIC [1, 6]: 16 µg/mL (≈ 51.6 µM)
- MIC against S. aureus NRS3 [3, 7]: 0.25 µg/mL (≈ 0.806 µM)

Structure (SMILES): CCCc1cc(=O)n(C)c2c3c4c(cc12)c(C)cc(=O)n4CO3 [compound 7]
- MIC against S. aureus 29213 [1, 5]: 16 µg/mL (≈ 51.6 µM)
- MIC [1, 6]: 16 µg/mL (≈ 51.6 µM)
- MIC against S. aureus NRS3 [3, 7]: 1 µg/mL (≈ 3.22 µM)

Structure (SMILES): CCCCCn1c(=O)cc(C)c2cc3c(C)cc(=O)n4c3c(c21)OC4 [compound 9]
- MIC against S. aureus 29213 [1, 5]: 32 µg/mL (≈ 94.6 µM)
- MIC [1, 6]: 32 µg/mL (≈ 94.6 µM)
- MIC against S. aureus NRS3 [3, 7]: 0.25 µg/mL (≈ 0.739 µM)

Structure (SMILES): CCCCCCn1c(=O)cc(C)c2cc3c(C)cc(=O)n4c3c(c21)OC4 [compound 10]
- MIC against S. aureus 29213 [1, 5]: > 64 µg/mL
- MIC [1, 6]: > 64 µg/mL
- MIC against S. aureus NRS3 [3, 7]: 1 µg/mL (≈ 2.84 µM)

Structure (SMILES): Cc1cc(=O)n2c3c(c4c(cc13)c(C)cc(=O)n4CC(C)C)OC2 [compound 11]
- MIC against S. aureus 29213 [1, 5]: > 32 µg/mL
- MIC [1, 6]: > 32 µg/mL
- MIC against S. aureus NRS3 [3, 7]: 2 µg/mL (≈ 6.17 µM)

Structure (SMILES): Cc1cc(=O)n2c3c(c4c(cc13)c(C)cc(=O)n4CC(C)(C)C)OC2 [compound 12]
- MIC against S. aureus 29213 [1, 5]: 32 µg/mL (≈ 94.6 µM)
- MIC [1, 6]: 32 µg/mL (≈ 94.6 µM)
- MIC against S. aureus NRS3 [3, 7]: 16 µg/mL (≈ 47.3 µM)

Structure (SMILES): CCc1cc(=O)n(C)c2c3c4c(cc12)c(CC)cc(=O)n4CO3 [compound 13]
- MIC against S. aureus 29213 [1, 5]: > 32 µg/mL
- MIC [1, 6]: > 32 µg/mL
- MIC against S. aureus NRS3 [3, 7]: 16 µg/mL (≈ 51.6 µM)
- solubility at 1 h (physchem): 48 ± 8 µM (≈ 14.9 µg/mL)

Structure (SMILES): CCCCn1c(=O)cc(CCC)c2cc3c(CCC)cc(=O)n4c3c(c21)OC4 [compound 15]
- MIC against S. aureus 29213 [1, 5]: > 32 µg/mL
- MIC [1, 6]: > 32 µg/mL
- MIC against S. aureus NRS3 [3, 7]: 32 µg/mL (≈ 84.1 µM)

Structure (SMILES): CCCCCCCCCC(=O)N[C@@H](Cc1c[nH]c2ccccc12)C(=O)N[C@H](CC(N)=O)C(=O)N[C@@H](CC(=O)O)C(=O)N[C@@H]1C(=O)NCC(=O)N[C@@H](CCCN)C(=O)N[C@@H](CC(=O)O)C(=O)N[C@H](C)C(=O)N[C@@H](CC(=O)O)C(=O)NCC(=O)N[C@H](CO)C(=O)N[C@@H]([C@H](C)CC(=O)O)C(=O)N[C@@H](CC(=O)c2ccccc2N)C(=O)O[C@@H]1C [daptomycin, reference compound]
- MIC [1, 6]: 2 µg/mL (≈ 1.23 µM)
- MIC against S. aureus NRS3 [3, 7]: 8 µg/mL (≈ 4.94 µM)
- MIC [3, 9]: 8 µg/mL (≈ 4.94 µM)

Structure (SMILES): CC(=O)NC[C@H]1CN(c2ccc(N3CCOCC3)c(F)c2)C(=O)O1 [linezolid, reference compound]
- MIC against S. aureus NRS3 [3, 7]: 0.5 µg/mL (≈ 1.48 µM)
- MIC [3, 9]: 0.5 µg/mL (≈ 1.48 µM)

Structure (SMILES): CN[C@H](CC(C)C)C(=O)N[C@H]1C(=O)N[C@@H](CC(N)=O)C(=O)N[C@H]2C(=O)N[C@H]3C(=O)N[C@H](C(=O)N[C@H](C(=O)O)c4cc(O)cc(O)c4-c4cc3ccc4O)[C@H](O)c3ccc(c(Cl)c3)Oc3cc2cc(c3O[C@@H]2O[C@H](CO)[C@@H](O)[C@H](O)[C@H]2O[C@H]2C[C@](C)(N)[C@H](O)[C@H](C)O2)Oc2ccc(cc2Cl)[C@H]1O [vancomycin, reference compound]
- MIC ([1]; ATCC29213, read-out: MIC against S. aureus 29213): 1 µg/mL (≈ 0.69 µM)
- MIC against S. aureus NRS3 [3, 7]: 8 µg/mL (≈ 5.52 µM)
- MIC [3, 9]: 8 µg/mL (≈ 5.52 µM)
- MIC (MRSA clinical isolates; strain SAU.1118): 2 µg/mL (≈ 1.38 µM)
- MIC (MRSA clinical isolates; strain SAU.2996): 1 µg/mL (≈ 0.69 µM)
- MIC (MRSA clinical isolates; strain SAU.3017): 1 µg/mL (≈ 0.69 µM)
- MIC (MRSA clinical isolates; strain SAU.3021): 1 µg/mL (≈ 0.69 µM)
- MIC (MRSA clinical isolates; strain SAU.3024): 2 µg/mL (≈ 1.38 µM)
- MIC (MRSA clinical isolates; strain SAU.419): 4 µg/mL (≈ 2.76 µM)
- MIC (MRSA clinical isolates; strain SAU.42): 1 µg/mL (≈ 0.69 µM)
- MIC (MRSA clinical isolates; strain SAU.446): 2 µg/mL (≈ 1.38 µM)
- MIC (MRSA clinical isolates; strain SAU.555): 1 µg/mL (≈ 0.69 µM)
- MIC (MRSA clinical isolates; strain SAU.846): 8 µg/mL (≈ 5.52 µM)
